Where two headings read alike, the source gives them in different places.

One data set relates to HBV. Description: Anti-HBV activity, HepG2.117 cell line, intracellular HBV DNA by real-time PCR. Type of data set: cell-based, Hepatitis B virus. The conditions noted are these: Hepatitis B virus, read-out: HBV-AVE-HepG2.117 EC50. The procedure:
The anti HBV activity was measured using the HepG2.117 cell line, a stable, inducibly HBV producing cell line, which replicates HBV in the absence of doxicycline (Tet-off system). The HepG2 cell line is available from ATCC® under number HB-8065. Transfection of the HepG2 cell line can be as described in Sun and Nassal 2006 Journal of Hepatology 45 (2006) 636-645 “Stable HepG2- and Huh7-based human hepatoma cell lines for efficient regulated expression of infectious hepatitis B virus”.
For the antiviral assay, HBV replication was induced, followed by a treatment with serially diluted compound in 96-well plates. After 3 days of treatment, the antiviral activity was determined by, quantification of intracellular HBV DNA using real-time PCR and an HBV specific primer set and probe.
For orientation: In qPCR the cycle at which signal appears reflects the starting amount.

Data set [1] in a line: Cytotoxicity, ATPlite Luminescence Assay. Type of data set: cell-based, human. The conditions noted are these: human, mean value, cells incubated for 3 days, viability by ATPlite, read-out: TOX-HepC2.117 CC50. The procedure:
Cytotoxicity of the compounds was tested using HepG2 or HepG2.117 cells, incubated for 3 days in the presence of compounds. The viability of the cells was assessed using the PERKIN ELMER ATPlite Luminescence Assay System.”

Setting [2] is: 72 h, mean value, HepG2.117 cells, 3 days of treatment, intracellular HBV DNA.

In general, EC50 refers to the midpoint of the concentration-response curve. As a reminder, the CC50 is the concentration at which the toxic effect on the cells reaches its halfway point. Regarding `O=C(NC1CC1)C1Cc2conc2-c2c3c(nn2C1)CCN(C(=O)c1ccc(Cl)c(Cl)c1)C3` (stereo not shown) [Compound 33, N-Cyclopropyl-11-(3,4-dichlorobenzoyl)-5,6,9,10,11,12-hexahydro-4H-[1,2]oxazolo[3,4-c]-pyrido[4′,3′:3,4]pyrazolo[1,5-a]azepine-5-carboxamide], the concentration for a half-maximal effect (EC50) in the data set on HBV (HepG2.117, 72 h) came to 154 nM. Besides, the CC50 at 3 days in data set [1] was above 50000 nM.
Turning to `C[C@@H]1Cc2nn3c(c2CN1C(=O)c1ccc(Cl)c(Cl)c1)-c1nocc1CC3` [Compound 5, (3,4-Dichlorophenyl)[(9R)-9-methyl-4,5,8,9-tetrahydro[1,2]oxazolo[3,4-c]-pyrazolo[1,5-a:4,3-c′]dipyridin-10(11H)-yl]methanone], the EC50 in the data set on HBV (setting [2]) was 279 nM. The CC50 at 3 days in data set [1] (HepG2.117 cells) is above 50000 nM.
The matching figures for `CCc1onc2c1CCn1nc3c(c1-2)CN(C(=O)c1ccc(Cl)c(Cl)c1)CC3` [Compound 3, (3,4-dichlorophenyl)(3-ethyl-4,5,8,9-tetrahydro[1,2]oxazolo[3,4-c]pyrazolo[1,5-a:4,3-c′]dipyridin-10(11H)-yl)methanone]: 1440 nM and 47000 nM.
For `O=C(NCC(F)(F)F)C1Cc2conc2-c2c3c(nn2C1)CCN(C(=O)c1ccc(Cl)c(Cl)c1)C3` (stereo not shown) [Compound 35, 11-(3,4-Dichlorobenzoyl)-N-(2,2,2-trifluoroethyl)-5,6,9,10,11,12-hexahydro-4H-[1,2]oxazolo-[3,4-c]pyrido[4′,3′:3,4]pyrazolo[1,5-a]azepine-5-carboxamide] the same measures were 395 nM and above 50000 nM.
The matching figures for `C=C1Cc2c(noc2N(C)C)-c2c3c(nn2C1)CCN(C(=O)c1ccc(Cl)c(Cl)c1)C3` [Compound 26, (3,4-Dichlorophenyl)[3-(dimethylamino)-5-methylidene-5,6,9,10-tetrahydro-4H-[1,2]oxazolo-[3,4-c]pyrido[4′,3′:3,4]pyrazolo[1,5-a]azepin-11(12H)-yl]methanone]: 1150 nM and above 50000 nM.
`CN(C)C(=O)C1Cc2conc2-c2c3c(nn2C1)CCN(C(=O)c1ccc(Cl)c(Cl)c1)C3` (stereo not shown) [Compound 36, 11-(3,4-Dichlorobenzoyl)-N,N-dimethyl-5,6,9,10,11,12-hexahydro-4H-[1,2]oxazolo[3,4-c]pyrido[4′,3′:3,4]pyrazolo[1,5-a]azepine-5-carboxamide]: the EC50 in the data set with HBV (setting [2]) was determined as 686 nM. Further, the CC50 at 3 days in data set [1] (HepG2.117 cells) is above 50000 nM.
Turning to `CCc1onc2c1CCCn1nc3c(c1-2)CN(C(=O)c1ccc(Cl)c(Cl)c1)CC3` [Compound 13, (3,4-Dichlorophenyl)(3-ethyl-5,6,9,10-tetrahydro-4H-[1,2]oxazolo[3,4-c]-pyrido[4′,3′:3,4]pyrazolo[1,5-a]azepin-11(12H)-yl)methanone], in the data set on HBV (setting [2]), the EC50 stood at 2940 nM. In data set [1] (HepG2.117 cells), the CC50 at 3 days was found to be 26600 nM.
Turning to `O=C(Nc1ccccc1)C1Cc2conc2-c2c3c(nn2C1)CCN(C(=O)c1ccc(Cl)c(Cl)c1)C3` (stereo not shown) [Compound 37, 11-(3,4-Dichlorobenzoyl)-N-phenyl-5,6,9,10,11,12-hexahydro-4H-[1,2]oxazolo[3,4-c]-pyrido[4′,3′:3,4]pyrazolo[1,5-a]azepine-5-carboxamide], in the data set with HBV (HepG2.117, 72 h), the EC50 amounted to 343 nM. In addition, in data set [1], the CC50 at 3 days is above 50000 nM.
On to `COC1Cc2conc2-c2c3c(nn2C1)CCN(C(=O)c1ccc(Cl)c(Cl)c1)C3` (stereo not shown) [Compound 20, (3,4-Dichlorophenyl)(5-methoxy-5,6,9,10-tetrahydro-4H-isoxazolo[3,4-c]pyrido[4′,3′:3,4]-pyrazolo[1,5-a]azepin-11(12H)-yl)methanone], for which the EC50 in the data set with HBV (setting [2]) is 300 nM. In addition, the CC50 at 3 days in data set [1] (HepG2.117 cells) is above 50000 nM.
For `O=C(c1ccc(Cl)c(Cl)c1)N1CCc2nn3c(c2C1)-c1oncc1CCC3` [Compound 39, (3,4-Dichlorophenyl)(4,5,6,9,10,12-hexahydro-11H-[1,2]oxazolo[5,4-c]pyrido[4′,3′:3,4]-pyrazolo[1,5-a]azepin-11-yl)methanone] the same measures were 1340 nM and 43600 nM.
For `CNC(=O)C1(O)Cc2conc2-c2c3c(nn2C1)CCN(C(=O)c1ccc(Cl)c(Cl)c1)C3` (stereo not shown) [Compound 22, 11-(3,4-Dichlorobenzoyl)-S-hydroxy-N-methyl-5,6,9,10,11,12-hexahydro-4H-[1,2]oxazolo-[3,4-c]pyrido[4′,3′:3,4]pyrazolo[1,5-a]azepine-5-carboxamide] the same measures were 130 nM and above 50000 nM.
For `CNC(=O)[C@@H]1Cc2conc2-c2c3c(nn2C1)CCN(C(=O)c1ccc(Cl)c(Cl)c1)[C@@H]3C` (single isomer, unassigned) [Compound 49], the EC50 with HBV (setting [2]) came out at 4640 nM. In addition, the CC50 at 3 days in data set [1] (HepG2.117 cells) is above 50000 nM.
The matching figures for `Cn1ncc2c1-c1c3c(nn1CC2)CCN(C(=O)c1ccc(Cl)c(Cl)c1)C3` [Compound 9, (3,4-Dichlorophenyl)(1-methyl-1,4,5,8,9,11-hexahydro-10H-pyrazolo[3,4-c]pyrazolo-[1,5-a:4,3-c′]dipyridin-10-yl)methanone]: above 50000 nM and above 50000 nM.
For `C=C1Cc2conc2-c2c3c(nn2C1)CCN(C(=O)c1ccc(Cl)c(Cl)c1)C3` [Compound 17, (3,4-Dichlorophenyl)(5-methylidene-5,6,9,10-tetrahydro-4H-[1.2]oxazolo[3,4-c]pyrido-[4′,3′:3,4]pyrazolo[1,5-a]azepin-11(12H)-yl)methanone] the same measures were 248 nM and 24700 nM.
For `CNC(=O)[C@H]1Cc2conc2-c2c3c(nn2C1)C[C@@H](C)N(C(=O)c1ccc(Cl)c(Cl)c1)C3` (single isomer, unassigned) [Compound 48] the same measures were 19 nM and above 50000 nM.
Turning to `Cc1onc2c1CCCn1nc3c(c1-2)CN(C(=O)c1ccc(Cl)c(Cl)c1)[C@H](C)C3` [Compound 15, (3,4-dichlorophenyl)[(10R)-3,10-dimethyl-5,6,9,10-tetrahydro-4H-[1,2]oxazolo-[3,4-c]pyrido[4′,3′:3,4]pyrazolo[1,5-a]azepin-11(12H)-yl]methanone], the EC50 with HBV (setting [2]) is 934 nM. In data set [1] (HepG2.117 cells), the cytotoxic concentration (CC50) at 3 days is above 43500 nM.
Consider `CNC(=O)[C@@H]1Cc2conc2-c2c3c(nn2C1)CCN(C(=O)c1ccc(Cl)c(Cl)c1)C3` (single isomer, unassigned) [Compound 30, (5′R)-11-(3,4-Dichlorobenzoyl)-N-methyl-5,6,9,10,11,12-hexahydro-4H-[1,2]oxazolo[3,4-c]-pyrido[4′,3′:3,4]pyrazolo[1,5-a]azepine-5-carboxamide], for which, in the data set with HBV (setting [2]), the EC50 was found to be 181 nM. The CC50 at 3 days in data set [1] (HepG2.117 cells) is above 50000 nM.
For `O=C(c1ccc(Cl)c(Cl)c1)N1CCc2nn3c(c2C1)-c1n[nH]cc1CC3` [Compound 6, (3,4-Dichlorophenyl)(2,4,5,8,9,11-hexahydro-10H-pyrazolo[3,4-c]pyrazolo[1,5-a:4,3-c′]-dipyridin-10-yl)methanone], the EC50 in the data set on HBV (setting [2]) is 208 nM. Further, the cytotoxic concentration (CC50) at 3 days in data set [1] (HepG2.117 cells) is above 50000 nM.
For `CCNC(=O)C1Cc2conc2-c2c3c(nn2C1)CCN(C(=O)c1ccc(Cl)c(Cl)c1)C3` (stereo not shown) [Compound 32, 11-(3,4-Dichlorobenzoyl)-N-ethyl-5,6,9,10,11,12-hexahydro-4H-[1,2]oxazolo[3,4-c]pyrido-[4′,3′:3,4]pyrazolo[1,5-a]azepine-5-carboxamide] the same measures were 90 nM and above 50000 nM.
On to `O=C(c1ccc(Cl)c(Cl)c1)N1CCc2nn3c(c2C1)-c1nc[nH]c1CCC3` [Compound 44, (3,4-Dichlorophenyl)(4,5,6,9,10,12-hexahydroimidazo[4,5-c]pyrido[4′,3′:3,4]pyrazolo[1,5-a]azepin-11(3H)-yl)methanone], for which the concentration for a half-maximal effect (EC50) with HBV (setting [2]) was determined as 574 nM. Further, in data set [1] (HepG2.117 cells), the CC50 at 3 days is above 50000 nM.
The matching figures for `Cc1onc2c1CCn1nc3c(c1-2)CN(C(=O)c1ccc(Cl)c(Cl)c1)CC3` [Compound 2]: 921 nM and 41900 nM.
For the compound `CNC(=O)[C@H]1Cc2conc2-c2c3c(nn2C1)CCN(C(=O)c1ccc(Cl)c(Cl)c1)[C@@H]3C` (single isomer, unassigned) [Compound 50], the 50% effective concentration (EC50) in the data set on HBV (setting [2]) worked out at 8430 nM. In data set [1] (HepG2.117 cells), the CC50 at 3 days is above 50000 nM.
The matching figures for `Cn1cc2c(n1)-c1c3c(nn1CC2)CCN(C(=O)c1ccc(Cl)c(Cl)c1)C3` [Compound 8, (3,4-Dichlorophenyl)(2-methyl-2,4,5,8,9,11-hexahydro-10H-pyrazolo[3,4-c]pyrazolo-[1,5-a:4,3-c]dipyridin-10-yl)methanone]: 2550 nM and above 50000 nM.
For `O=C(c1ccc(Cl)c(Cl)c1)N1CCc2nn3c(c2C1)-c1nocc1CCC3` [Compound 11] the same measures were 300 nM and above 46200 nM.
Turning to `O=C(c1cnc(Cl)c(Cl)c1)N1CCc2nn3c(c2C1)-c1nocc1CC(O)C3` (stereo not shown) [Compound 53], the EC50 with HBV (setting [2]) is above 10000 nM. In data set [1] (HepG2.117 cells), the 50% cytotoxic concentration (CC50) at 3 days was above 50000 nM.
The matching figures for `Cc1nc2c(s1)CCn1nc3c(c1-2)CN(C(=O)c1ccc(Cl)c(Cl)c1)CC3` [Compound 10, (3,4-Dichlorophenyl)(2-methyl-4,8,9,11-tetrahydro[1,3]thiazolo[4,5-c]pyrazolo[1,5-a:4,3-c′]-dipyridin-10(5H)-yl)methanone]: 8060 nM and above 10000 nM.
